Measurements published in US5147868A, “Thienamycin renal peptidase inhibitors” (Merck & Co., Inc., priority 1992, dated 1992).
Values belong to the compound of their own block, whether it stands above or below them.

Tests used:
renal dipeptidase = molecular target: T1, renal dipeptidase (Sus scrofa, UniProt P22412); test: affinity and hydrolysis of substrates by renal dipeptidase; assay type: biochemical, pig (hog kidneys); settings: compared with thienamycin
T1 construct: disulfide-linked homodimer
T1 sequence (P22412 17-384): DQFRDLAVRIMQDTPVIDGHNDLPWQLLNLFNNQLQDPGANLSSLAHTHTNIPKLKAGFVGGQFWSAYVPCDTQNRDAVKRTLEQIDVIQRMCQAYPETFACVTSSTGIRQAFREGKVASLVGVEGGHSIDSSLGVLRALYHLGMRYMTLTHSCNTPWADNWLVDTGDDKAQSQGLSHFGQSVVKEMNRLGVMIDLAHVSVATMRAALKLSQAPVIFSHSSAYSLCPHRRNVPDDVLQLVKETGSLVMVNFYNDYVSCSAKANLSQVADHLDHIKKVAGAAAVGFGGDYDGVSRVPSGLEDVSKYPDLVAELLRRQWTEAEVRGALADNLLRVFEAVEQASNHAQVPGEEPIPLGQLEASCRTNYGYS

[1] = molecular target: T2, dipeptidase (E.C.3.4.13.11), pig renal enzyme (Sus scrofa, UniProt P22412); test: in vitro inhibition of hydrolysis of glycyldehydrophenylalanine (GDP) by solubilized renal dipeptidase; assay type: biochemical, pig (hog kidneys)
T2 construct: solubilized preparation of dipeptidase isolated from hog kidneys; from tissue; host or cells: hog kidney
T2 sequence (P22412 17-409): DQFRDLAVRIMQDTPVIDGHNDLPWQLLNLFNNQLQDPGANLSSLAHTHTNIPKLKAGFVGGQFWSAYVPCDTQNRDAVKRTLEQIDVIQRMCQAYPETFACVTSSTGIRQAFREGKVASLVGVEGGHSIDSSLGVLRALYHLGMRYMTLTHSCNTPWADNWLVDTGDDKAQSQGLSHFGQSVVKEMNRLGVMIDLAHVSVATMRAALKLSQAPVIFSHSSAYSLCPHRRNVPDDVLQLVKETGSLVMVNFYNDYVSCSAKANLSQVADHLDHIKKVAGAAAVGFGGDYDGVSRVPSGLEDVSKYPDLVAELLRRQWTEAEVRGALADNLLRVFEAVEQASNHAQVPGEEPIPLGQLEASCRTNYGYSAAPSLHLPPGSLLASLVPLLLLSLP
Protocol: This measured the ability of compounds to inhibit hydrolysis of glycyldehydrophenylalanine (GDP) by a solubilized preparation of dipeptidase isolated from hog kidneys. The procedure is as follows: to a 1 ml. system containing 50 mM "MOPS" (3-(N-morpholino)propanesulfonic acid) buffer, pH 7.1, is added 5 μg of lyophilized enzyme, and the test compound at a final concentration of 0.1 mM. After a five minute incubation at 37° C., GDP is added to a final concentration of 0.05 mM. Incubation is continued for 10 minutes, at 37° C. and hydrolysis of GDP is measured by the change in optical density with time at 275 nm. Inhibition of the enzyme is gauged by comparison to a standard run containing no inhibitor and is expressed as the inhibitor binding constant, Ki.
A 1 ml. system of 50 mM "MOPS" buffer, pH 7.1, is used. To this is added 5 μg of the pig renal enzyme and an amount of the test compound to bring its final concentration to 0.1 mM. After a five minute incubation at 37° C., an amount of GDP is added to bring its final concentration to 0.05 mM. The system is again incubated for 10 minutes, at 37° C. Hydrolysis of GDP is measured by its change in optical density with time at 275 nm. Inhibition of the enzyme is gauged by comparison to a standard run containing no inhibitor and is presented as percent inhibition.

Structure (SMILES): NCC(=O)NC(=Cc1ccccc1)C(=O)O [GDP, glycyldehydrophenylalanine]
maximal velocity of hydrolysis by renal dipeptidase (renal dipeptidase): much higher maximal velocity of hydrolysis

Ki ([1]; pH 7.1, 37° C., concentration giving 50% inhibition, calculated from multiple assays, GDP substrate): 48 nM
Structure (SMILES): CC1(C)CC1C(=O)N/C(=C\CCCC(=O)O)C(=O)O (racemic) [Compound 64]

Structure (SMILES): CCCCC/C=C(\NC(=O)[C@H]1CC1(C)C)C(=O)O [dextrorotatory isomer, (+) Z-2-(2,2-dimethylcyclopropanecarboxamido)-2-octenoic acid]
activity of resolved isomers ([1]; resolved racemic octenoic acid, test not specified): The activity resides in the dextrorotatory isomer
